Assay results: US20110319397A1 (priority 2009, published 2011)

Biological target: α7-subtype of nicotinic receptors (Mus musculus, UniProt P49582)
Type: in vivo, mice
Details: ex vivo, mouse hippocampal membranes; dose inhibiting specific binding of 3H-α-bungarotoxin (1 nM) by 50%

α7-subtype of nicotinic receptors, sequence (P49582 23-502): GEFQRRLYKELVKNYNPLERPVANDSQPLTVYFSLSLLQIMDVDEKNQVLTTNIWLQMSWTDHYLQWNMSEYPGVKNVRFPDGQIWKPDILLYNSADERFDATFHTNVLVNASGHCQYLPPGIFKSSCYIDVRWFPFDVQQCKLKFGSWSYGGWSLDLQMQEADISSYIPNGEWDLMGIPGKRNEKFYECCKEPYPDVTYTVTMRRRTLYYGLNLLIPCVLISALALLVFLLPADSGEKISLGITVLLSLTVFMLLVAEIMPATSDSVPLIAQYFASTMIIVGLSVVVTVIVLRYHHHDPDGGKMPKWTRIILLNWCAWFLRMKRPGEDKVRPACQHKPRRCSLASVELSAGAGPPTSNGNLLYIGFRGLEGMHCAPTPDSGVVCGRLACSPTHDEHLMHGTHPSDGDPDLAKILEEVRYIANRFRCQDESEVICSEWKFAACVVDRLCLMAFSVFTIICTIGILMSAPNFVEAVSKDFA

With `[O-][N+]12CCC(CC1)N(c1nnc(-c3ccoc3)o1)CC2` [Compound 1, 4-(5-Furan-3-yl-[1,3,4]oxadiazol-2-yl)-1,4-diaza-bicyclo[3.2.2]nonane 1-oxide] the “EC50 (mg/kg), Inhibition of 3H-α-Bungarotoxine Binding” value was 40 mg/kg.
